# Measurements taken from paper PMC6269819, “Evaluation of the Biological Activity of Naturally Occurring 5,8-Dihydroxycoumarin” (Molecules, 2013).
# Marks after values point to notes of the source that are not given here.
# Assays:
# [1] = system: Wistar rat bone marrow cells; settings: rats, single 30–40 mg/kg dose of CP; cited from earlier work
# [2] = system: Wistar rat bone marrow cells; test: Micronucleus in vivo assay in rat bone marrow; settings: single i.p. 30 mg/kg b.w., sacrifice 24 h
# From the text: Male albino Wistar rats aged 8–10 weeks and having body weight of 200–220 g, were used in the present study. The animals were supplied by the Animal Facility of the Department of Immunology, State Research Institute Center for Innovative Medicine. Ethical approval was given by the Committee of the Lithuanian Animal Care and Use. Prior to the start of the study, the animals were acclimatized for 7 days. They were housed under conditions of constant temperature, humidity and a light/dark cycle of 12 h/12 h with free access to standard commercial pellet diet and drinking water. The animals were randomly distributed into 11 experimental groups of six rats each.
# We used a mixture of dimethylsulfoxide (DMSO) and sunflower oil (1:2) as the vehicle for 5,8-DHC (5,8-DHC was dissolved in DMSO and adjusted to the desired dose with sunflower oil immediately before administration). For the acute treatment, the animals received single intraperitoneal (i.p.) injections of 10 or 20 mg/kg of 5,8-DHC in 1 mL volume per 100 g body weight (b.w.). The negative control group comprised animals, given a single i.p. injection of vehicle (1 mL/100 g b.w.) and the positive control group, given cyclophosphamide (CP, 30 mg/kg adjusted in 0.5 mL/100 g b.w. in sterile physiological saline). A commercial form of cyclophosphamide was used (‘Endoxan’, ASTA Medica AG, Frankfurt, Germany). Blank controls comprised untreated animals. For the repeated treatment, 5,8-DHC (10 or 20 mg/kg) or vehicle was administered via gavage (1 mL/100 g b.w.) once a day for 3 consecutive days. Animals were sacrificed 24 h or 48 h after the last dose administration. Colchicine was applied i.p. at a dose of 2 mg/kg b.w. in 1 mL volume 90 min before sacrifice. Both femurs were dissected from each animal and used to obtain bone marrow preparations for the analysis of chromosome aberrations and micronucleus.
# The bone marrow MN assay was conducted according to the standard procedure. Ends of the femura were cut off and the bone marrow was washed out with 2 mL of heat-inactivated foetal calf serum (Biochrom AG, Berlin, Germany), mixed thoroughly to obtain a fine suspension and centrifuged for 5 min at 150 × g. The supernatant was discarded and the cell pellet was carefully re-suspended. At least two smears per animal were prepared and allowed to air dry prior to fixation with methanol. The slides were stained in May-Grünwald solution followed by Giemsa (both Merck), coded and scored blind by the same scorer under magnification of 1000× (Jenaval, Zeiss, Jena, Germany). Micronucleated polychromatic erythrocyte (MNPCE) frequencies were based on the observation of 2,000 immature polychromatic erythrocytes (PCEs). Bone marrow toxicity was monitored by a decrease of PCE to total erythrocytes (e.g., PCEs+NCEs, normochromatic erythrocytes). At least 1,000 bone marrow erythrocytes per animal were analysed.
# human lymphocytes = test: Chromosome aberrations in human lymphocyte cultures in vitro; assay type: cell-based; settings: female, human, 24 h, 0.02 µL/mL
# Method: Blood samples were taken from two healthy female volunteers (donor A) and (donor B). Whole peripheral blood was grown in HEPES-buffered RPMI 1640 medium supplemented with 12% heat-inactivated newborn calf serum, 7.8 μg/mL phytohemagglutinin P, 50 μg/mL gentamycin, 10 μg/mL 5-bromo-2'-deoxyuridine. All reagents used for the cell culture were purchased from Sigma-Aldrich Chemical Co. (St. Louis, MO, USA). Cell cultures were incubated at 37 °C for 72 h. Treatment with test compounds was carried out 48 h after culture initiation and lasted for the period of 24 h. Dose range of 5,8-DHC (10 to 40 µg/mL) was based on pilot experiments (data not shown). As whole blood cultures display many properties common with the liver microsomal cytochrome P450 system, no external metabolising enzymes were added. 5,8-DHC was dissolved in ethanol and then diluted with RPMI 1640 medium to the desired concentration. Ethanol in a final concentration of 7.5µL/mL was used as a solvent control. […] Working solutions were made just before treatment. Two parallel cultures were used for each concentration of the compound tested. Two cultures were left untreated and served as a blank control. Methyl methanesulfonate (MMS) in a final concentration of 0.02 μL/mL was used as a positive control. The cultures were exposed to colchicine at a final concentration of 0.6 μg/mL for the last 3 h of incubation. The cells were harvested, hypotonically swollen in 0.075 M KCl and fixed in methanol: acetic acid (3:1). Air-dried slides were differentially stained by fluorescence plus Giemsa technique as has been described previously. Briefly, the slides were stained for 10 min. with 10 μg/mL of Hoechst 33258 dye (dissolved in 0.07 M Soerensen’s buffer, pH 6.8). Then the slides were rinsed, mounted with citrate buffer (pH 8.5), covered with cover slips and exposed to UV light (400 W mercury lamp at a distance of 15 cm) for 6–7 min. Slides were then rinsed and stained for 3–4 min. with 5% Giemsa. Cytogenetic analysis was performed on coded slides. No less than 100 first-mitotic division metaphases per culture were analysed for CAs, and no less than 50 second-division metaphases for SCEs.
# [3] = system: Drosophila melanogaster wing cells; test: Somatic mutation and recombination test (SMART), wing spot test; assay type: in vivo; settings: positive control, 50 μM MMS
# Method: The basic procedures for the D. melanogaster somatic mutation and recombination test (SMART) were performed according to Graf and co-workers. Two D. melanogaster strains (kindly provided by Dr. H. Frei, Zurich, Switzerland) were used in the present study: virgin females from the strain ORR/ORR; flr^3/ In (3LR) TM3, ri p^p sep l(3)89Aa bx^34e e Bd^S were mated with mwh/mwh males. The ORR strain has chromosomes 1 and 2 from a DDT-resistant Oregon line, which are characterized by constitutively over-expressed CYP450 genes. The CYP 450 enzymes play the main role in the bioactivation of xenobiotics, as well as natural products including phytochemicals. Thus, the use of this high-bioactivation strain of D. melanogaster facilitates the detection of promutagens of numerous classes of compounds. The markers mwh (multiple wing hairs) and flr^3 (misshapen, flare-like hairs) are recessive wing-hair mutations located on the third chromosome at 0.3 and 38.8 respectively.
# Eggs from the crosses were collected over 10 h periods. Progeny were raised on the Instant Drosophila Medium (Sigma Chemical Co., St. Louis, MO, USA) at 25 °C. Two schedules of the larvae treatment were applied. Firstly, the crossed flies were permitted to lay eggs for 10 h in vials containing medium prepared with 5,8-DHC solution. Thus, the exposure duration was about 120 h (i.e., evolutionary period from fly egg till case-worm). According to the second schedule, the 72 ± 5 h-old larvae were exposed to 5,8-DHC by adding test solution to the surface of the medium and were fed on this medium for the rest of their development, during approximately 48 h. 5,8-DHC was dissolved in ethanol and then diluted with distilled water to the desired concentration, with the final ethanol concentration 5% v/v. The solutions were always prepared immediately before use. Solvent controls were included in all treatments. Methyl methanesulfonate was included in the assay as a positive control. Trans-heterozygous (mwh flr^+ / mwh^+ flr^3) flies were collected and stored in a 70% ethanol. The wings of adult flies were mounted on glass slides in Faure’s solution, coded and scored at 400× magnification (Nikon E200) for the presence of single (mwh or flr^3 phenotype) or twin (adjacent mwh and flr^3 clones) spots. The spots were recorded according to standard procedures. No less than 40 wings were analysed per each experimental point. Two repeated experiments were carried out.
# male rat hepatocytes = settings: cited from earlier work
# [4] = system: Chinese hamster ovary (CHO) cells; settings: doses up to 333 μM; cited from earlier work
structure (smiles),measurement,setting,value
"O=P1(N(CCCl)CCCl)NCCCO1 (stereo not drawn) [CP, cyclophosphamide, reference compound]",frequency of abnormal metaphases,[1],16–21%
same,MNPCE (%± S.E.M.),[2],1.67 ± 0.22 ^a %
same,PCE (%± S.E.M.),[2],34.8 ± 6.4%
"COS(C)(=O)=O [MMS, Methyl methanesulfonate, reference compound]",CA per 100 cells (±S.E.M.),human lymphocytes,12.0 ± 3.2 ^b per 100 cells
same,large single spots,[3],4.63
same,small single spots,[3],1.65
same,total spots per wing,[3],7.15 spots per wing
same,twin spots,[3],0.88
same,wings with spots,[3],100%
"O=c1ccc2ccccc2o1 [coumarin, 1,2-benzopyrone]",induction of UDS,"male rat hepatocytes; oral administration, doses up to 320 mg/kg bw",does not induce UDS
same,maximum tolerated dose,"male rat hepatocytes; rat, in vivo, po",320 mg/kg bw
"O=c1ccc2ccc(O)cc2o1 [umbelliferone, 7-hydroxycoumarin]",increase in SCE or chromosome aberration,[4],no evidence of increase
